Data reported in US7781580B2, “Stilbene derivatives as new cancer therapeutic agents” (Virginia Commonwealth University, priority 2007, dated 2010).

How the values were obtained:
[1] = tested on: SKOV3 ovarian cancer cells; assay: Alamar Blue cell growth inhibition, SKOV3; type: cell-based
Procedure, shortened: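 SKOV3 cells at 50% confluence were treated 48 h with compounds, against 0.1% DMSO vehicle controls. Growth was read by Alamar Blue absorbance at 570 and 600 nm, with % growth inhibition from the manufacturer's extinction-coefficient formula. Each concentration was run in triplicate.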

[2] = tested on: MDA-MB231 cells; assay: immunofluorescent staining of tubulin, MDA-MB231; type: cell-based; conditions: CA4 10 nM, stilbene 4a 100 nM, vincristine 100 nM, 5b 3 μM; 16 hours
From the text: Nuclei were stained with 4′,6-diamidino-2-phenylindole (DAPI). Control cells show the reticular pattern of the microtubule network.

[3] = tested on: c-kit positive marrow progenitor cells; assay: bone marrow c-kit-positive progenitor cells: cell cycle and colony forming assay; type: cell-based
Protocol: FIG. 16. (a) Effect of stilbenes in normal bone marrow progenitor cells. c-kit-positive bone marrow mononuclear cells were isolated for incubation with stilbenes 4a or 4c at 0.1 or 0.5 […] for 16 hours. Cells were harvested for fixation and PI staining. Cell cycle analysis and quantification of the subG0/1 population were analyzed by FACScan flow cytometry. The percentages of the apoptotic population were indicated. Shown are the representatives of two independent experiments. (b) Effect of stilbenes in HL60 cells as positive control. HL60 cells were treated with stilbenes 4a or 4c in the same medium as the positive control. (c) Colony forming assay of the stilbene-treated c-kit-positive cells. A fraction of the cells in (a) were diluted and plated on methylcellulose medium at various densities. Cells were incubated for 14 days and the grossly visible colonies were counted. […] Isolated bone marrow c-kit-positive progenitor cells were incubated with DMSO or stilbenes 4a or 4c at 0.1 or 0.5 μM for 16 hours and injected into tail veins of CD45 congenic mice lethally irradiated with 1200 cGy. Mice were monitored for survival and lineage-specific donor engraftment by flow cytometry analysis of peripheral blood. The percentage of donor cells in T, B, and granulocytic series of the recipients were studied at 7 and 14 weeks after transplantation. Stilbene treated c-Kit progenitor cells had the same percentage as the DMSO treated control in all series.
Mouse bone marrow was harvested from femur and tibia of […], subjected to red blood cell lysis, and labeled with anti-c-kit (3C11; CALTAG Laboratories, Burlingame, Calif.) and streptavidin-conjugated microbeads for MACS separation (Miltenyi Biotech, Auburn, Calif.). The c-kit positive marrow progenitor cells were incubated in Iscove's Modified Eagle's Media supplemented with 30% fetal bovine serum, erythropoietin, stem cell factor and interleukin-3 with or without stilbenes 4a or 4c. The ability of long-term proliferation of the c-kit-positive cells was evaluated with colony forming assay. Cells were first treated with DMSO, stilbenes 4a or 4c for 5 h and a fraction of the cells (4000 cells) were plated in the same enriched culture media with methylcellulose for colony forming assays. The grossly visible colonies were counted after 14 days of incubation.

[4] = tested on: Chk1−/− cells; assay: cell cycle analysis, Chk1-/- MDA-MB231 derivative; type: cell-based
Protocol: Due to the structural similarity between stilbene 4a and CA4, we investigated the difference in the biological activity of these two compounds in MDA-MB231 breast cancer cells and their Chk2−/− derivatives. […] MDA-MB231 cells were treated with 10 nM stilbene 4a or 1 nM CA4. […] However, a difference in cell cycle change was observed following treatment with 30 nM of stilbene 4a versus 3 nM of CA4. […] This was also the case for cells treated with 100 nM stilbene 4a. A significant subG1/0 population was also noted. […] One possible effect could be a DNA damage response, which is a common mechanism of multiple chemotherapeutic agents but not one of pure microtubule-interfering agents such a paclitaxel or vincristine. […] We then obtained conditional Chk1−/− and Chk2−/− cells, which were derived from the same MDA-MB231 cells for the same flow cytometry analysis. […] In contrast, Chk2−/− cells were more sensitive to stilbene 4a. […] This mechanism is not obvious in higher drug concentrations at which the G2 arrest from microtubule interference is dominant. Therefore, in addition to their microtubule interfering effect, stilbenes have another mechanism to induce cell death. Thus, the use of a Chk2 inhibitor in combination with stilbenes may be a viable approach to enhancing the beneficial therapeutic effects of stilbenes.

[5] = acute toxicity in dose escalating study; type: in vivo, mice; conditions: 100 mg/kg intraperitoneally
Protocol: Acute toxicity in dose escalating study: We investigated the efficacy of stilbene 4a in vivo using mouse xenograft model. First we determined the maximal tolerated dose of stilbene 4a since it has a higher potency in vitro. […] Subsequently mice fully recovered 30 min after injection.

[6] = tested on: UCI101 cells; assay: phospho-histone 3B mitotic marker staining; type: cell-based
Protocol: (a) In vitro sensitivity of UCI101 cells toward three potential stilbene prodrugs, 5a-c, was tested in 96-well plates using Alamar Blue™ assays to determine cell growth inhibition. […] (b) 5b induces cell cycle change and apoptosis in UCI101 cells. Cells were incubated with 5b at 1, 3, 10 μM for 16 hours followed by PI staining and flow cytometry analysis. A subG0/1 population, representing apoptotic cells, appeared along with a decrease of the G1/G2 ratio after cells were treated with 3 μM 5b. Higher concentration (10 μM) of 5b completely killed cells, as was the case with stilbene 4a at […]. (c) Cells treated with stilbene 4a and 5b were stained with phospho-histone 3B, a mitotic marker. The positive signals of phospho-histone 3B were shown in green and nuclei were stained with DAPI in blue. […] (d) In vivo efficacy of 5b compared with stilbene 4a. Nude mice were injected with UCI101 ovarian cancer cells and treated with 7 doses of 5b,c or stilbene 4a every 2-3 days. Tumor volume was calculated and plotted against days.
The in vitro efficacy of these three compounds was tested in UCI101 cells in 96-well plate format and stained with Alamar blue™, The growth suppression was calculated as was done similarly to other test compounds. […] A dose response was then performed with various concentrations of 5b in vitro. […]

## COc1cc(/C=C\c2ccc(OC)c(N)c2)cc(OC)c1 [4a, (Z)-5-[2-(3,5-Dimethoxy-phenyl)-vinyl]-2-methoxy-phenylamine]
[1]; Homo sapiens, SK-OV-3
  IC50: 50 to 100 nM
[1]; SKOV3, 48 hours
  effective / active concentration: 0.1 µM
[2]
  microtubule pattern: did not completely disrupt microtubule formation
[3]
  toxicity to normal bone marrow progenitor cells versus leukemia cells: much less toxic to normal bone marrow progenitor cells
[3]; 0.1 μM, 16 hours
  cell cycle of marrow progenitor cells at 0.1 μM: increased the subG0/1 and G2 population slightly
[3]; 0.5 μM, 16 hours
  cell cycle of marrow progenitor cells at 0.5 μM: increased the subG0/1 and G2 population slightly
[4]
  sensitivity versus MDA-MB231: more resistant
[5]
  acute toxicity at 100 mg/kg intraperitoneally: no sign of weakness was observed
[6]
  phospho-histone 3B positive cells: dramatic increase in positive cells
